Measured values taken from the NIST ThermoML archive (doi:10.1016/j.jct.2013.01.012).

Columns and labels:
[1] = refractive index (Na D-line) (dimensionless); mn = molality of the nth substance listed, in mol/kg; settings: 101 kPa, Liquid, Standard Abbe refractometry
[2] = mn = molality of the nth substance listed, in mol/kg; settings: 101 kPa, Liquid; for speed of sound: Sing-around technique in a fixed-path interferometer; for mass density: Vibrating tube method

O=P([O-])(O)O.[K+] [monopotassium phosphate] + O
Settings	mass density, [2] [kg/m3]	refractive index, [1]	speed of sound, [2] [m/s]
298.15 K, m1 = 0.1	1007.01	1.3343	1506.5
298.15 K, m1 = 0.3	1026.44	1.3374	1524.5
298.15 K, m1 = 0.5	1046.68	1.3401	1542.1
298.15 K, m1 = 0.7	1066.58	1.3435	–
298.15 K, m1 = 0.9	1088.28	1.3466	1577.6
303.15 K, m1 = 0.1	1005.58	1.3336	1518.4
303.15 K, m1 = 0.3	1025.15	1.3368	1536
303.15 K, m1 = 0.5	1045.29	1.3397	1553.2
303.15 K, m1 = 0.7	1065.65	1.3427	1570.1
303.15 K, m1 = 0.9	1087.42	1.3463	1587.9
308.15 K, m1 = 0.1	1004.16	1.333	1528.8
308.15 K, m1 = 0.3	1023.58	1.3361	1545.8
308.15 K, m1 = 0.5	1044.55	1.3392	1563.1
308.15 K, m1 = 0.7	1065.08	1.3423	1580
308.15 K, m1 = 0.9	1086.5	1.3455	1596.6

O=P([O-])([O-])[O-].[K+].[K+].[K+] [tripotassium phosphate] + O
Settings	mass density, 298.15 K [kg/m3]	mass density, 303.15 K [kg/m3]	mass density, 308.15 K [kg/m3]	refractive index, 298.15 K	refractive index, 303.15 K	refractive index, 308.15 K	speed of sound, 298.15 K [m/s]	speed of sound, 303.15 K [m/s]	speed of sound, 308.15 K [m/s]
[1], m1 = 0.1	–	–	–	1.3365	1.3357	1.3351	–	–	–
[1], m1 = 0.3	–	–	–	1.344	1.3435	1.3426	–	–	–
[1], m1 = 0.5	–	–	–	1.3517	1.351	1.3502	–	–	–
[1], m1 = 0.7	–	–	–	1.3595	1.3588	1.3581	–	–	–
[1], m1 = 0.9	–	–	–	1.3671	1.3667	1.3659	–	–	–
[2], m1 = 0.1	1017.14	1015.62	1013.92	–	–	–	1518.2	1529.8	1539.7
[2], m1 = 0.3	1057.82	1056.83	1054.87	–	–	–	1559.7	1570.2	1578.9
[2], m1 = 0.5	1101.23	1100.46	1098.72	–	–	–	1603	1616.1	1622.8
[2], m1 = 0.7	1145.91	1145.57	1144.26	–	–	–	1658.8	1666.7	1671.9
[2], m1 = 0.9	1191.53	1191.62	1190.09	–	–	–	1716.6	1723.7	1725.1

O=P([O-])(O)O.[Na+] [sodium dihydrogen phosphate] + O
Settings	mass density, 298.15 K [kg/m3]	mass density, 303.15 K [kg/m3]	mass density, 308.15 K [kg/m3]	refractive index, 298.15 K	refractive index, 303.15 K	refractive index, 308.15 K	speed of sound, 298.15 K [m/s]	speed of sound, 303.15 K [m/s]	speed of sound, 308.15 K [m/s]
[1], m1 = 0.1	–	–	–	1.3346	1.334	1.3335	–	–	–
[1], m1 = 0.3	–	–	–	1.3381	1.3376	1.3371	–	–	–
[1], m1 = 0.5	–	–	–	1.3408	1.3412	1.3398	–	–	–
[1], m1 = 0.7	–	–	–	1.344	1.3435	1.3428	–	–	–
[1], m1 = 0.9	–	–	–	1.3492	1.3473	1.3466	–	–	–
[2], m1 = 0.1	1006.23	1005.17	1004.2	–	–	–	1507.1	1519.2	1529.8
[2], m1 = 0.3	1024.26	1022.91	1021.13	–	–	–	1527.2	1538.5	1548.1
[2], m1 = 0.5	1043.03	1041.67	1039.97	–	–	–	1547.3	1558.2	1567.3
[2], m1 = 0.7	1062.08	1060.86	1060.09	–	–	–	1567.7	1577.8	1587.9
[2], m1 = 0.9	1081.28	1079.48	1080.28	–	–	–	1587.8	1579.2	1608.1

O=P([O-])([O-])O.[K+].[K+] [dipotassium hydrogen phosphate] + O
Settings	mass density, 298.15 K [kg/m3]	mass density, 303.15 K [kg/m3]	mass density, 308.15 K [kg/m3]	refractive index, 298.15 K	refractive index, 303.15 K	refractive index, 308.15 K	speed of sound, 298.15 K [m/s]	speed of sound, 303.15 K [m/s]	speed of sound, 308.15 K [m/s]
[1], m1 = 0.1	–	–	–	1.3354	1.3346	1.334	–	–	–
[1], m1 = 0.3	–	–	–	1.3404	1.3397	1.3392	–	–	–
[1], m1 = 0.5	–	–	–	1.3456	1.3453	1.3445	–	–	–
[1], m1 = 0.7	–	–	–	1.3506	1.35	1.3495	–	–	–
[1], m1 = 0.9	–	–	–	1.3557	1.3554	1.3547	–	–	–
[2], m1 = 0.1	1016.33	1015.38	1014.18	–	–	–	1512.8	1525.1	1535.6
[2], m1 = 0.3	1041.48	1040.03	1038.39	–	–	–	1542.9	1553.8	1563.4
[2], m1 = 0.5	1072.35	1071.14	1069.06	–	–	–	1574.6	1584.6	1593.3
[2], m1 = 0.7	1103.77	1103.01	1103.01	–	–	–	1607.3	1616.8	1626
[2], m1 = 0.9	1135.65	1136.16	1134.44	–	–	–	1641.6	1651.1	1657.8
